In article PMC9785777, “Antidiabetic Potential of Novel 1,3,5-Trisubstituted-2-Thioxoimidazloidin-4-One Analogues: Insights into α-Glucosidase, α-Amylase, and Antioxidant Activities” (Pharmaceuticals, 2022):
Values after ≈ are worked out from the molar mass of the structure shown. Values joined by “and” are separate entries in the source; they are usually repeats but may differ in a detail not shown here. Equal entries are not always repeated.

Key:
[1] = ROS-generation assay (H2O2 generated with DTT, HRP-phenol red, 610 nm); details: 50 µM compound, incubated with DTT; control 90.74±5.54
Source text: The […] metabolites and enzymes (such as NADPH oxidase, lipoxygenase, and cytochrome P450) act together to mediate the production of ROS and diminish the counteractive oxidative damage. ROS can cause damage to DNA, lipid, proteins, and nucleic acids and the destruction of cell components leading to cell death. Toward this end, we aimed to investigate whether the mode of action of this class of compounds involved the generation of ROS. ROS-producing compounds upon reaction with a reducing agent in the presence of oxygen afford superoxide O^•−2 radical and hydrogen peroxide (H2O2) which could be quantitively estimated. Thus, compounds 5a and 7a (at 50 µM concentration) were incubated with the reducing agent dithiothreitol (DTT) and the generated H2O2 was subsequently assessed by monitoring the oxidation of phenol red in the presence of horseradish peroxidase (HRP) at the absorbance of 610 nm. We first examined the validity of the assay by examining the activity of a known ROS-producing standard drug. In our study, Celecoxib was utilized as a reference pharmacological ROS-generating drug. […] Next, we evaluated the potency of compounds 5a and 7a to produce ROS at a 50 µM concentration.
According to Nasiri et al., the antioxidant activity of compounds (5a, 7a) and Celecoxib was measured by an evaluation of ROS-generation using ELISA analysis. Three different solutions were prepared for the in vitro assessment of ROS-generation: phenol red, sodium hydroxide solution, and DTT. All reagents were provided by Sigma-Aldrich. A stock solution of DTT (20 mM) was prepared by dissolving […] of DTT in 500 µL of Hank’s Balanced Salt Solution (HBSS), and the obtained solution was preserved at −20 °C. The stock solution was further diluted with HBSS to 0.8 mM for each measurement. The HRP-PR solution was prepared by dissolving 1.8 mg of horseradish peroxidase (HRP) and 3 mg of phenol red (PR) in 10 mL of HBSS. […] After incubation, 1N NaOH was applied, and the absorbance at 610 nm was measured using a plate reader spectrometer. […]

[2] = tested on: human lung fibroblast WI-38 cell line; test: MTT cytotoxicity assay against WI-38 cells; type: cell-based; details: MTT, 48 h
Description: (§1) Based on the promising dual inhibitory activity of this class of compounds, we next evaluated the cytotoxicity of compounds 5a and 7a against human lung fibroblast cell line WI-38 in order to gain insights into the toxicity of this class of compounds utilizing the MTT assay. In this regard, lung fibroblast cells were cultured and treated with compounds 5a and 7a for 48 h at different concentrations (1000, 250, 63, 16, and 4 µg/mL). After the cells were washed, they were treated with MTT solution and the absorption was assessed using an ELISA reader at 570 nm. As a pharmacological reference drug, Celecoxib, a well-known anti-inflammatory agent, was utilized.
(§2) The cytotoxicity of compounds 5a and 7a was assessed toward the human lung fibroblast WI-38 cell line (Sigma-Aldrich, St. Louis, MO, USA, product number 90020107) using MTT assay. The MTT test assay was performed in accordance with the previously stated procedure. MTT (3-(4,5-dimethylthiazol-2-yl)-2,5-diphenyl tetrazolium bromide; Sigma catalog no. M2128) was dissolved in PBS at 5 mg/mL and processed to eliminate the insoluble residues. Briefly, cells (10^5 cells/well) were treated for 48 h at 37 °C with compounds 5a and 7a at varied doses (1000, 250, 63, 16, and 4 µg/mL, DMSO stock solutions) in a 5% CO2 atmosphere. In our assessment, celecoxib, an inhibitor of cyclooxygenase 2, was employed as a standard reference drug. Following cell washing, MTT solution (180 µL/well) was applied to the cells and incubated at 37 °C for 4 h with shaking, and the absorbance was measured using an ELISA reader at 570 nm.

[3] = MTT cytotoxicity assay against WI-38 cells; type: cell-based, human; details: human, WI-38 lung fibroblast cells
Description: as §1, §2

[4] = target: α-glucosidase; details: cited from earlier work
[5] = target: α-amylase; details: cited from earlier work
[6] = tested on: INS-1 cells; set-up: method as in PMID 10918947; details: 10 µg/mL, in the presence of 5.6 mmol/L glucose ref 36; cited from earlier work

Cc1ccc(-c2cc(C(F)(F)F)nn2-c2ccc(S(N)(=O)=O)cc2)cc1 [Celecoxib, reference compound]
ROS produced (generated H2O2) [1]: 171.6 pg/mL and 171.6 ± 1.89 pg/mL
WI-38 cytotoxicity IC50 [2]: 93.054 µg/mL
viability at 48 h, 4 µg/mL ([3]; 4 µg/mL (log conc. 0.602)): 67.3%
viability at 48 h, 16 µg/mL ([3]; 16 µg/mL (log conc. 1.204)): 61.7%
viability at 48 h, 63 µg/mL ([3]; 63 µg/mL (log conc. 1.799)): 54.2%
viability at 48 h, 250 µg/mL ([3]; 250 µg/mL (log conc. 2.398)): 43%
viability at 48 h, 1000 µg/mL ([3]; 1000 µg/mL (log conc. 3)): 35.4%
IC50 at 48 h ([3]; MTT): 93 µg/mL (≈ 244 µM)

O=C1CNC(=S)N1C(=O)c1cc([N+](=O)[O-])cc([N+](=O)[O-])c1 [Compound 3j]
IC50 ([4]; read-out: IC50 toward α-glucosidase enzyme): 51 µM
IC50 ([5]; read-out: IC50 toward α-amylase enzyme): 8.2 µM

CN1C(=O)/C(=C/c2ccc(-c3cc(=O)c4ccccc4o3)cc2)N(C)C1=S [Compound 9]
increase of insulin release as compared to control [6]: 40%

O=C1CNC(=S)N1 [unsubstituted-2-thiohydantoin, 2-thiohydantoin]
IC50 toward α-glucosidase activity [4]: 356.22 µg/mL (≈ 3070 µM)
IC50 toward α-amylase activity [5]: 410.35 µg/mL (≈ 3530 µM)
